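Following 48 hours of exposure in 96-well plates, responses at five concentrations were used to interpolate endpoints linearly. GI50 marks 50% less growth.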 Activity calls are given as the source filed them. Rule as the data show it: active = GI50 up to about 1.1 µM and inactive = higher.
Tests used:
Experiment in all cases: DTP human tumour cell line panel, 48 h
UO-31 = test system: UO-31
Malme-3M = test system: Malme-3M
RPMI-8226 = test system: RPMI-8226
A498 = test system: A498
SF-268 = test system: SF-268
UACC-62 = test system: UACC-62
HOP-62 = test system: HOP-62
SNB-19 = test system: SNB-19
NCI-H23 = test system: NCI-H23
ACHN = test system: ACHN
K562 = test system: K562
HT-29 = test system: HT-29
U-251 = test system: U-251
M14 = test system: M14
CAKI-1 = test system: CAKI-1
HCT-15 = test system: HCT-15
HL-60 = test system: HL-60
LOX IMVI = test system: LOX IMVI
MDA-N = test system: MDA-N
BT-549 = test system: BT-549

SMILES	GI50 (UO-31)	GI50 (Malme-3M)	GI50 (RPMI-8226)	GI50 (A498)	GI50 (SF-268)	GI50 (UACC-62)	GI50 (HOP-62)	GI50 (SNB-19)	GI50 (NCI-H23)	GI50 (ACHN)	GI50 (K562)	GI50 (HT-29)	GI50 (U-251)	GI50 (M14)	GI50 (CAKI-1)	GI50 (HCT-15)	GI50 (HL-60)	GI50 (LOX IMVI)	GI50 (MDA-N)	GI50 (BT-549)
OCCCNc1ccnc2cc(Cl)ccc12	25.5 µM (inactive)	> 100 µM (inactive)	> 100 µM (inactive)	> 100 µM (inactive)	> 100 µM (inactive)	> 100 µM (inactive)	> 100 µM (inactive)	> 100 µM (inactive)	> 100 µM (inactive)	> 100 µM (inactive)	> 100 µM (inactive)	> 100 µM (inactive)	> 100 µM (inactive)	> 100 µM (inactive)	> 100 µM (inactive)	> 100 µM	> 100 µM (inactive)	> 100 µM (inactive)		
COC(=O)/C=C/c1cc(O)c2c(c1)[C@H](C(=O)OC)[C@@H](c1ccc(O)c(O)c1)O2	0.189 µM (active)		0.0618 µM (active)	6.82 µM (inactive)	0.635 µM (active)	0.0865 µM (active)	0.333 µM (active)	0.0386 µM (active)	0.342 µM (active)	0.08 µM (active)	0.0306 µM (active)	3.16 µM (inactive)	0.0664 µM (active)	0.0386 µM (active)	0.544 µM (active)	0.0451 µM		0.0757 µM (active)	0.0122 µM (active)	
COc1cc2c(c(OC)c1O)-c1ccc(SC)c(=O)cc1C(NC(C)=O)CC2 (centres undefined)	5.96 µM (inactive)	< 0.01 µM (active)	< 0.0121 µM (active)	0.195 µM (active)	< 0.0107 µM (active)	< 0.0119 µM (active)	0.0405 µM (active)	0.019 µM (active)	0.0167 µM (active)	0.557 µM (active)	< 0.01 µM (active)	0.0119 µM (active)	< 0.0146 µM (active)	0.0249 µM (active)	0.285 µM (active)	1.06 µM	< 0.01 µM (active)	< 0.01 µM (active)		
CCc1ccc2c(c1)CC1(C2)Cc2cc3c(cc2C1)C(=O)CC3 (centres undefined)	43.9 µM (inactive)	14.9 µM (inactive)	18.5 µM (inactive)	10.9 µM (inactive)		> 100 µM (inactive)	19.8 µM (inactive)		22.9 µM (inactive)	17.9 µM (inactive)	3.85 µM (inactive)	6.31 µM (inactive)	18.8 µM (inactive)	25.9 µM (inactive)		23.9 µM	2.69 µM (inactive)	15.4 µM (inactive)	2.25 µM (inactive)	
CCN(CC)CCN(/C(=N/c1ccccc1)N1CCOCC1)c1ccccc1	> 100 µM (inactive)	> 100 µM (inactive)	> 100 µM (inactive)		> 100 µM (inactive)	> 100 µM (inactive)	74.6 µM (inactive)	> 100 µM (inactive)	70 µM (inactive)		> 100 µM (inactive)	42.1 µM (inactive)	> 100 µM (inactive)	> 100 µM (inactive)	> 100 µM (inactive)	> 100 µM	18.2 µM (inactive)	44.6 µM (inactive)		> 100 µM (inactive)
O=C1/C(=C(\Nc2ccccc2)c2ccccc2)C=NN1c1ccccc1	> 100 µM (inactive)	59 µM (inactive)	40.8 µM (inactive)	> 100 µM (inactive)	> 100 µM (inactive)	> 100 µM (inactive)		> 100 µM (inactive)	56.8 µM (inactive)	61 µM (inactive)	72.8 µM (inactive)	47.9 µM (inactive)	> 100 µM (inactive)	> 100 µM (inactive)	> 100 µM (inactive)	> 100 µM	17.7 µM (inactive)	> 100 µM (inactive)		
CN1CCC23c4c5ccc(O)c4OC2C(=NN=C2CCC4(O)C6Cc7ccc(O)c8c7C4(CCN6C)C2O8)CCC3(O)C1C5 (centres undefined)	> 100 µM (inactive)	> 100 µM (inactive)	> 100 µM (inactive)	> 100 µM (inactive)	> 100 µM (inactive)	> 100 µM (inactive)	> 100 µM (inactive)	> 100 µM (inactive)	> 100 µM (inactive)	> 100 µM (inactive)	> 100 µM (inactive)	> 100 µM (inactive)	> 100 µM (inactive)	> 100 µM (inactive)	> 100 µM (inactive)	> 100 µM	> 100 µM (inactive)	> 100 µM (inactive)		
COC(=O)C(=O)C(C(=O)C=C(C)C)C(=O)C(=O)Nc1nc2ccc([N+](=O)[O-])cc2s1 (centres undefined)	41.5 µM (inactive)	> 100 µM (inactive)	28.4 µM (inactive)	30.5 µM (inactive)	39 µM (inactive)	38.5 µM (inactive)	38.4 µM (inactive)	> 100 µM (inactive)	24.9 µM (inactive)	33.3 µM (inactive)	46.2 µM (inactive)	> 100 µM (inactive)	49.8 µM (inactive)	52 µM (inactive)	29.5 µM (inactive)	50.6 µM	35.4 µM (inactive)	56.4 µM (inactive)		
